From patent publication US8138168B1 (Takeda Pharmaceutical Company Limited, priority 2007, dated 2012) come the findings set out here.

pIC50: −log10 of the molar value. Some results are limits rather than exact numbers.

This assay concerns the target T1, Recombinant human renin (Homo sapiens, UniProt P00797).
T1 construct: isolate the active form (residues 67-406); made in house; host or cells: FreeStyle 293-F cells (transient expression of pcDNA3.1(+)/hREN)
T1 sequence (P00797 67-406): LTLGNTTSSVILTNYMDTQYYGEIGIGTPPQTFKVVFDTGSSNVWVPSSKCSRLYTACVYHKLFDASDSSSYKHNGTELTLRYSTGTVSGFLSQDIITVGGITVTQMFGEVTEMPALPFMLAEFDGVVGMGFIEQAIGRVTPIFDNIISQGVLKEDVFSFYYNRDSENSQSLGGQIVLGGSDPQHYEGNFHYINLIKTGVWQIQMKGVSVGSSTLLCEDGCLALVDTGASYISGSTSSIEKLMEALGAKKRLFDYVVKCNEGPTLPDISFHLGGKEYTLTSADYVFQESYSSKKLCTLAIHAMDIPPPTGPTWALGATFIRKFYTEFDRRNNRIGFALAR
Briefly: In vitro enzymatic activity assay of renin inhibitors (fluorogenic peptide substrate). It is filed as biochemical. The following applies: read-out: IC50 of Exemplified Compounds Against Renin. In short, it runs like this: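 Recombinant human renin (3 nM final) pre-incubated 10 min at 37 °C with compounds in pH 7.4 Hepes/EDTA/DTT/0.1 mg/mL BSA/Brij35 buffer (optionally plus 2% BSA), 5% DMSO final; fluorogenic QXL520/HiLyteFluo488 peptide substrate added.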

What is called pIC50 is −log10 of the IC50, conventionally taken in molar units. In the case of `COCCCn1c([C@@H]2CCCN(C(=O)C[C@H](N)CNC(=O)c3ccc(-c4ccsc4)cc3)C2)nc2ccccc21` [Compound 261, N-((S)-2-amino-4-((R)-3-(1-(3-methoxypropyl)-1H-benzo[d]imidazol-2-yl)piperidin-1-yl)-4-oxobutyl)-4-(thiophen-3-yl)benzamide], the negative logarithm of the IC50 (pIC50) was over 7.00. Turning to `CC(C)[C@H](N)C(=O)N1CCCC(c2nc3ccccc3[nH]2)C1` (stereo partly drawn) [Compound 47, (2S)-1-(3-(1H-benzo[d]imidazol-2-yl)piperidin-1-yl)-2-amino-3-methylbutan-1-one], the negative-log IC50 (pIC50) was under 6.00. For `COCCCn1c([C@@H]2CCCN(C(=O)C[C@H](N)Cc3ccc(-c4ccc(OCC5CC5)nc4)cc3)C2)nc2ccccc21` [Compound 143, (R)-3-amino-4-(4-(6-(cyclopropylmethoxy)pyridin-3-yl)phenyl)-1-((R)-3-(1-(3-methoxypropyl)-1H-benzo[d]imidazol-2-yl)piperidin-1-yl)butan-1-one], the pIC50 is over 7.00. Regarding `COCCCn1c([C@@H]2CCCN(C(=O)[C@@H]3CN(c4ccc([N+](=O)[O-])cc4)C[C@H]3N)C2)nc2ccccc21` [Compound 508, ((3R,4S)-4-amino-1-(4-nitrophenyl)pyrrolidin-3-yl)((R)-3-(1-(3-methoxypropyl)-1H-benzo[d]limidazol-2-yl)piperidin-1-yl)methanone], the negative-log IC50 (pIC50) was 6.00 to 7.00.

`COCCCn1c([C@@H]2CCCN(C(=O)[C@@H]3CN(S(=O)(=O)c4cccc(-c5csc(C)n5)c4)C[C@H]3N)C2)nc2ccccc21` [Compound 364, ((3R,4S)-4-amino-1-(3-(2-methylthiazol-4-yl)phenylsulfonyl)pyrrolidin-3-yl)((R)-3-(1-(3-methoxypropyl)-1H-benzo[d]imidazol-2-yl)piperidin-1-yl)methanone]: the negative logarithm of the IC50 (pIC50) is 6.00 to 7.00. For the compound `COCCCn1c([C@@H]2CCCN(C(=O)C[C@H](N)CNC(=O)Nc3ccc4c(c3)CCC4)C2)nc2ccccc21` [Compound 266, 1-((S)-2-amino-4-((R)-3-(1-(3-methoxypropyl)-1H-benzo[d]imidazol-2-yl)piperidin-1-yl)-4-oxobutyl)-3-(2,3-dihydro-1H-inden-5-yl)urea], the negative-log IC50 (pIC50) is 6.00 to 7.00.

`CCOc1ccccc1NC(=O)NC[C@@H](N)CC(=O)N1CCC[C@@H](c2nc3ccccc3n2CCCOC)C1` [Compound 285, 1-((S)-2-amino-4-((R)-3-(1-(3-methoxypropyl)-1H-benzo[d]imidazol-2-yl)piperidin-1-yl)-4-oxobutyl)-3-(2-ethoxyphenyl)urea]: the pIC50 was 6.00 to 7.00. With `COCCCn1c([C@@H]2CCCN(C(=O)C[C@H](N)CNC(=O)NC3CCCC3)C2)nc2ccccc21` [Compound 332, 1-((S)-2-amino-4-((R)-3-(1-(3-methoxypropyl)-1H-benzo[d]imidazol-2-yl)piperidin-1-yl)-4-oxobutyl)-3-cyclopentylurea], the pIC50 was under 6.00.

Regarding `COCCCn1c([C@@H]2CCCN(C(=O)C[C@H](N)CNS(=O)(=O)c3ccc(Cl)cc3)C2)nc2ccccc21` [Compound 281, N-((S)-2-amino-4-((R)-3-(1-(3-methoxypropyl)-1H-benzo[d]imidazol-2-yl)piperidin-1-yl)-4-oxobutyl)-4-chlorobenzenesulfonamide], the pIC50 is 6.00 to 7.00. The figure for `COCCCn1c([C@@H]2CCCN(C(=O)C[C@H](N)Cc3ccc(-c4ccc(N5CCNC5=O)cc4)cc3)C2)nc2c(F)cccc21` [Compound 441, 1-(4′-((R)-2-amino-4-((R)-3-(4-fluoro-1-(3-methoxypropyl)-1H-benzo[d]imidazol-2-yl)piperidin-l-yl)-4-oxobutyl)biphenyl-4-yl)imidazolidin-2-one] is over 7.00; for `COCCCn1c([C@@H]2CCCN(C(=O)C[C@H](N)Cc3ccc(-c4ccc5c(c4)OC(F)(F)O5)cc3)C2)nc2c(F)cccc21` [Compound 454, (R)-3-amino-4-(4-(2,2-difluorobenzo[d][1,3]dioxol-5-yl)phenyl)-1-((R)-3-(4-fluoro-1-(3-methoxypropyl)-1H-benzo[d]imidazol-2-yl)piperidin-1-yl)butan-1-one] it is over 7.00; for `COCCCn1c([C@@H]2CCCN(C(=O)C[C@@H](N)COc3cccc(OC)c3)C2)nc2ccccc21` [Compound 433, (R)-3-amino-4-(3-methoxyphenoxy)-1-((R)-3-(1-(3-methoxypropyl)-1H-benzo[d]imidazol-2-yl)piperidin-1-yl)butan-l-one] it is under 6.00.

As to `COCCCn1c([C@@H]2CCCN(C(=O)[C@@H]3CN(S(=O)(=O)c4cccc(F)c4)C[C@H]3N)C2)nc2ccccc21` [Compound 428, ((3R,4S)-4-amino-1-(3-fluorophenylsulfonyl)pyrrolidin-3-yl)((R)-3-(1-(3-methoxypropyl)-1H-benzo[d]imidazol-2-yl)piperidin-1-yl)methanone], the pIC50 was 6.00 to 7.00. For the compound `CCCNC(=O)N1CCCC(c2nc3ccccc3[nH]2)C1` (centres unmarked) [Compound 17, 3-(1H-benzo[d]imidazol-2-yl)-N-propylpiperidine-1-carboxamide], the pIC50 is under 6.00. In the case of `N[C@@H](CC(=O)N1CCCC(c2nc3ccccc3[nH]2)C1)Cc1ccc(Cl)cc1` (stereo partly drawn) [Compound 23, (3R)-1-(3-(1H-Benzo[d]imidazol-2-yl)piperidin-1-yl)-3-amino-4-(4-chlorophenyl)butan-1-one] it was under 6.00; in that of `COCCCn1c([C@@H]2CCCN(C(=O)C[C@H](N)Cc3ccc(-c4ccccc4)cc3)C2)nc2ccncc21` [Compound 103, (R)-3-amino-4-(biphenyl-4-yl)-1((R)-3-(3-(3-methoxypropyl)-3H-imidazo[4,5-c]pyridin-2-yl)piperidin-1-yl)butan-1-one], under 6.00. Take `COCCCn1c([C@@H]2CCCN(C(=O)C[C@H](N)c3cccc(C#N)c3)C2)nc2ccccc21` [Compound 85, 3-((S)-1-amino-3-((R)-3-(1-(3-methoxypropyl)-1H-benzo[d]imidazol-2-yl)piperidin-1-yl)-3-oxopropyl)benzonitrile]: the pIC50 was under 6.00.

Turning to `COCCCn1c([C@@H]2CCCN(C(=O)[C@@H]3CN(C(=O)c4ccccc4Cl)C[C@H]3N)C2)nc2ccccc21` [Compound 398, ((3R,4S)-4-amino-1-(2-chlorobenzoyl)pyrrolidin-3-yl)((R)-3-(1-(3-methoxypropyl)-1H-benzo[d]imidazol-2-yl)piperidin-1-yl)methanone], the negative logarithm of the IC50 (pIC50) is under 6.00. In the case of `COCCCn1c([C@@H]2CCCN(C(=O)C[C@H](N)CNC(=O)c3cccc(F)c3)C2)nc2ccccc21` [Compound 318, N-((S)-2-amino-4-((R)-3-(1-(3-methoxypropyl)-1H-benzo[d]imidazol-2-yl)piperidin-1-yl)-4-oxobutyl)-3-fluorobenzamide], the pIC50 was 6.00 to 7.00.

With `CC(=O)NCCn1c([C@@H]2CCCN(C(=O)C[C@H](N)Cc3ccc(-c4ccc5c(c4)OCCN5C)cc3)C2)nc2c(C)cccc21` [Compound 475, N-(2-(2-((R)-1-((R)-3-amino-4-(4-(4-methyl-3,4-dihydro-2H-benzo[b][1,4]oxazin-7-yl)phenyl)butanoyl)piperidin-3-yl)-4-methyl-1H-benzo[d]imidazol-1-yl)ethyl)acetamide], the pIC50 is 6.00 to 7.00. `COCCCn1c([C@@H]2CCCN(C(=O)C[C@H](N)Cc3ccc(-c4ccc(O)nc4)cc3)C2)nc2c(C)ccnc21` [Compound 504, (R)-3-amino-4-(4-(6-hydroxypyridin-3-yl)phenyl)-1-((R)-3-(3-(3-methoxypropyl)-7-methyl-3H-imidazo[4,5-b]pyridin-2-yl)piperidin-1-yl)butan-1-one]: the negative logarithm of the IC50 (pIC50) is 6.00 to 7.00. In the case of `O=C(Nc1cccnc1)N1CCCC(c2nc3ccccc3[nH]2)C1` (centres unmarked) [Compound 20, 3-(1H-benzo[d]imidazol-2-yl)-N-(pyridin-3-yl)piperidine-1-carboxamide] it was under 6.00. On to `COCCCn1c([C@@H]2CCCN(C(=O)C[C@H](N)CNC(=O)c3ccco3)C2)nc2ccccc21` [Compound 325, N-((S)-2-amino-4-((R)-3-(1-(3-methoxypropyl)-1H-benzo[d]imidazol-2-yl)piperidin-1-yl)-4-oxobutyl)furan-2-carboxamide], for which the pIC50 was under 6.00.

Consider `CCOCCNC(=O)c1ccc(-c2ccc(C[C@@H](N)CC(=O)N3CCC[C@@H](c4nc5ccccc5n4CCCOC)C3)cc2)cc1` [Compound 178, 4′-((R)-2-amino-4-((R)-3-(1-(3-methoxypropyl)-1H-benzo[d]imidazol-2-yl)piperidin-1-yl)-4-oxobutyl)-N-(2-ethoxyethyl)biphenyl-4-carboxamide], for which the negative logarithm of the IC50 (pIC50) was over 7.00. Consider `COCCCn1c([C@@H]2CCCN(C(=O)CC(O)Cc3ccc(-c4ccccc4)cc3)C2)nc2ccccc21` (stereo in doubt) [Compound 73, (R)-4-(Biphenyl-4-yl)-3-hydroxy-1-(3-(1-(3-methoxypropyl)-1H-benzo[d]imidazol-2-yl)piperidin-1-yl)butan-1-one], for which the negative-log IC50 (pIC50) was 6.00 to 7.00. Turning to `COCCCn1c([C@@H]2CCCN(C(=O)C[C@H](N)Cc3ccc(-c4ccc(C(=O)NCC(O)CO)cc4)cc3)C2)nc2ccccc21` (stereo partly drawn) [Compound 181, 4′-((R)-2-amino-4-((R)-3-(1-(3-methoxypropyl)-1H-benzo[d]imidazol-2-yl)piperidin-1-yl)-4-oxobutyl)-N-(2,3-dihydroxypropyl)biphenyl-4-carboxamide], the negative logarithm of the IC50 (pIC50) was over 7.00.
